According to US10988451B2, “MCL-1 inhibitors” (Gilead Sciences, Inc., priority 2018, dated 2021):
Where two headings read alike, the source gives them in different places.

Experiments:
MCL-1/Bim = MCL-1/Bim (Homo sapiens (Human), UniProt Q07820); assay: MCL-1/Bim Binding AlphaLISA Assay; settings: 6xHis-Mcl-1 (171-327) and biotinylated Bim peptide (51-76)
Protocol: MCL-1/Bim Binding AlphaLISA Assay.
Inhibition of the MCL-1 and Bim interaction was measured in the following AlphaLISA assay.
Recombinant human MCL-1 protein (C-terminal 6×His Tagged Mcl-1 containing residues 171-327) was generated at Gilead Sciences, Inc. (Foster City, Calif.). A biotinylated peptide derived from human Bim (residues 51-76) was purchased from CPC Scientific (Sunnyvale, Calif.). (CPC 834113). AlphaLISA anti-6His-acceptor beads (AL128R), AlphaScreen Streptavidin donor beads (6760002B), and Proxiplate-384 Plus (6008289) were purchased from PerkinElmer.
The AlphaLISA assay was performed in a 384-well Proxiplate in a total volume of 40 μL. The reaction mixture contained 0.0625 nM 6× His-Mcl-1 (171-327), 0.0625 nM biotinylated-Bim peptide, 10 μg/mL AlphaLISA anti-6×His-AlphaLISA acceptor beads, 40 μg/mL AlphaScreen streptavidin donor beads, and serially diluted test compounds in the binding buffer (20 mM Hepes, pH 7.5 (Teknova H1035); 150 mM NaCl (Promega V4221); 0.002% Brij 35 (Thermo Scientific 20150); 1 mM Dithiothreitol (DTT) Solution (Affymetrix 70726); 0.01% BSA (BioLabs B9000S)). 1,000× test compounds were pre-spotted onto 384-well Proxiplate (Labcyte Echo) by Echo 555 Liquid Handler (Labcyte Inc., San Jose, Calif.) followed by incubation of 5 μl Mcl-1(171-327) for 1 hour. Then 5 μL Bim (51-76) was added and incubated for 2 hours. Five μL AlphaLISA anti-6His-AlphaLISA acceptor beads were then added for 1 hour followed by addition of 5 μL AlphaScreen streptavidin donor beads for 1 hour. The reaction plates were then read on an Envision multimode reader (PerkinElmer) using AlphaScreen settings. […] Percent inhibition was calculated as shown below: % Inhibition=100%*(Well−Neg)/(Pos−Neg) Neg: negative control, DMSO Pos: positive control, no Mcl-1 protein, no biotinylated-Bim peptide

SKBR3 cells = assay: SKBR3 Cell Viability Assay; type: cell-based; settings: CellTiter Glo, read-out: MCL-1 CV SKBR3 EC50
Protocol: SKBR3 Cell Viability Assay Materials
SKBR3 Cells (ATCC HTB-30) were obtained from ATCC (Manassas, Va.) and cultured in McCoy 5A's medium (ATCC 30-2007)+10% fetal bovine serum (SH30071.03, HyClone, Pittsburgh, Pa.) plus 1× Penicillin-Streptomycin L-glutamine (Corning 30-009-C1, Corning, N.Y.)).
The cell viability assay was conducted in a 384-well tissue culture plate (Grenier 781086, Monroe, N.C.) in a total volume of 70 μL. Test compounds were prepared in 1,000×, serially diluted, and pre-spotted into 384-well tissue culture plate by Echo 555 Liquid Handler (Labcyte Inc., San Jose, Calif.). Seventy μ1 of 6,000 SKBR3 cells were dispensed into each well of the plate and incubated at 37° C. with 5% CO2 for 72 hours. At the end of incubation, 2× CellTiter Glo (CTG) reagents (1 part buffer with 2 parts substrate) (Promega, Madison, Wis.) were prepared, and the plate and the reagent were equilibrated to room temperature for 30 minutes. CTG reagent was added to each plate by Biomek FX at 20 μL/well with 5 times pipetting and mixing to induce cell lysis. Luminescence was read by Envision multimode reader (PerkinElmer). […] Percent inhibition was calculated as followed: % Inhibition=100%*(Well−Neg)/(Pos−Neg) Neg, negative control, DMSO Pos, positive control, 10 μM Puromycin

MCL-1/Bim, sequence (Q07820 171-327): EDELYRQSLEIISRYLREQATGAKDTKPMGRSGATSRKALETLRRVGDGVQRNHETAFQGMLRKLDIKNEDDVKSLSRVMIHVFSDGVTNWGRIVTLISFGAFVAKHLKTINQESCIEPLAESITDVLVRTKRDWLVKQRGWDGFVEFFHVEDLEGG

| SMILES | IC50 (MCL-1/Bim) [nM] | EC50 (SKBR3 cells; Homo sapiens, SK-BR-3, 72 h) [nM] | EC50 (SKBR3 cells; 72 hours) [nM] |
| --- | --- | --- | --- |
| CC[C@H]1CN2C[C@@]3(CCCc4cc(Cl)ccc43)COc3ccc(cc32)C(=O)N=[S@](=O)(NC(=O)CC(C)C)CCC/C=C/[C@H](OC)[C@@H]1C [Example 26] | 1.8 | 1690 | – |
| CO[C@H]1/C=C/CCCS(=O)(NC(=O)CCc2ccnn2C)=NC(=O)c2ccc3c(c2)N(C[C@@H]2CC[C@H]21)C[C@@]1(CCCc2cc(Cl)ccc21)CO3 (single isomer, unassigned) [Example 48] | 3.7 | 8450 | – |
| CO[C@H]1/C=C/CCCS(=O)(NC(=O)CCN(C)C)=NC(=O)c2ccc3c(c2)N(C[C@@H]2CC[C@H]21)C[C@@]1(CCCc2cc(Cl)ccc21)CO3 (stereo partly drawn) [Example 15] | 7.4 | 7730 | – |
| CC[C@H]1CN2C[C@@]3(CCCc4cc(Cl)ccc43)COc3ccc(cc32)C(=O)N=[S@](=O)(NC(C)=O)CCC/C=C/[C@H](OC)[C@@H]1C [Example 25] | 0.6 | 2010 | – |
| CO[C@H]1/C=C/CCC[S@@](=O)(NC(=O)CCc2ccnn2C)=NC(=O)c2ccc3c(c2)N(C[C@@H]2CC[C@H]21)C[C@@]1(CCCc2cc(Cl)ccc21)CO3 [Example 22] | 0.1 | – | 259 |
| COC1Cc2cc(C(=O)N[S@@]3(=O)=NC(=O)c4ccc5c(c4)N(C[C@@H]4CC[C@H]4[C@@H](OC)/C=C/C[C@H](C)C3)C[C@@]3(CCCc4cc(Cl)ccc43)CO5)cn2C1 (stereo partly drawn) [Example 205] | 0.075 | 58.9 | – |
| CO[C@H]1/C=C/CCC[S@@](=O)(NC(=O)NCc2ccc(F)cc2)=NC(=O)c2ccc3c(c2)N(C[C@@H]2CC[C@H]21)C[C@@]1(CCCc2cc(Cl)ccc21)CO3 [Example 37] | 1.4 | 1610 | – |
| CC[C@H]1CN2C[C@@]3(CCCc4cc(Cl)ccc43)COc3ccc(cc32)C(=O)N=[S@](=O)(NC(=O)NC(C)C)CCC/C=C/[C@H](OC)[C@@H]1C [Example 19] | 1.1 | 1080 | – |
| CO[C@H]1/C=C/C[C@H](C)[C@@H](C)[S@](=O)(NC(=O)CCc2ccnn2C)=NC(=O)c2ccc3c(c2)N(C[C@@H]2CC[C@H]21)C[C@@]1(CCCc2cc(Cl)ccc21)CO3 [Example 50] | 1.4 | 3320 | – |
| CO[C@H]1/C=C/C[C@H](C)[C@@H](C)[S@@](=O)(NC(=O)c2cnn(C3COC3)c2)=NC(=O)c2ccc3c(c2)N(C[C@@H]2CC[C@H]21)C[C@@]1(CCCc2cc(Cl)ccc21)CO3 [Example 152] | 0.057 | 55.7 | – |

Continued by falling IC50 (MCL-1/Bim), values first:

| IC50 (MCL-1/Bim) [nM] | EC50 (SKBR3 cells; Homo sapiens, SK-BR-3, 72 h) [nM] | SMILES | EC50 (SKBR3 cells; 72 hours) [nM] |
| --- | --- | --- | --- |
| 0.5 | 2060 | CC[C@H]1CN2C[C@@]3(CCCc4cc(Cl)ccc43)COc3ccc(cc32)C(=O)N=[S@](=O)(NC(=O)Cc2cnccn2)CCC/C=C/[C@H](OC)[C@@H]1C [Example 20] | – |
| 0.106 | – | COc1nn(C)cc1C(=O)N[S@@]1(=O)=NC(=O)c2ccc3c(c2)N(C[C@@H]2CC[C@H]2[C@@H](OC)/C=C/[C@H](OC(=O)CCc2ccccc2)[C@H](C)C1)C[C@@]1(CCCc2cc(Cl)ccc21)CO3 [Example 377] | 34 |
| 0.1 | 705 | CO[C@H]1/C=C/CCC[S@@](=O)(NC(=O)CCc2ccn(C)n2)=NC(=O)c2ccc3c(c2)N(C[C@@H]2CC[C@H]21)C[C@@]1(CCCc2cc(Cl)ccc21)CO3 [Example 51] | – |
| 0.044 | 80.1 | CO[C@H]1/C=C/C[C@H](C)C[S@@](=O)(CC(=O)N[C@@H]2CC[C@@H](O)C2)=NC(=O)c2ccc3c(c2)N(C[C@@H]2CC[C@H]21)C[C@@]1(CCCc2cc(Cl)ccc21)CO3 [Example 222] | – |
| 0.038 | 19 | COc1nn(C)cc1C(=O)N[S@@]1(=O)=NC(=O)c2ccc3c(c2)N(C[C@@H]2CC[C@H]2[C@@H](O)/C=C/C[C@H](C)[C@H]1C)C[C@@]1(CCCc2cc(Cl)ccc21)CO3 [Example 359] | – |
